In PMC11364543, “Molecular recognition of an odorant by the murine trace amine-associated receptor TAAR7f” (Nature Communications, 2024):

Biological target: T1, mTAAR7f (Mus musculus, UniProt Q5QD08)
T1 construct: gene Taar7f; full length; N-terminal signal peptide, twin-strep and SNAP-tag, C-terminal nanoluc; BRET partner NES-Venus-mini-Gs (reporter)
T1 sequence (Q5QD08 1-358): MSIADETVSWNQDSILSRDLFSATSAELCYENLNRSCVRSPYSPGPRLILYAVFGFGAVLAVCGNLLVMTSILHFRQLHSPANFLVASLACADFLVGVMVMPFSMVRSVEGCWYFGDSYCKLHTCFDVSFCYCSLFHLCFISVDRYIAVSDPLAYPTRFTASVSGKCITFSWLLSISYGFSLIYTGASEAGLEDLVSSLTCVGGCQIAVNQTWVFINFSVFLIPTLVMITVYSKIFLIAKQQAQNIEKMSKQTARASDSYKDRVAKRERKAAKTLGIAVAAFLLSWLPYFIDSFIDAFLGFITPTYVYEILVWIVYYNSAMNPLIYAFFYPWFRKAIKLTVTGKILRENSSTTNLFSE
Assay: BRET mini-Gs recruitment (nanoluc receptor, NES-Venus-mGs), concentration-response
Assay type: cell-based
Text: BRET mini-Gs recruitment (nanoluc receptor, NES-Venus-mGs), concentration-response on mTAAR7f | BRET ratios measured for increasing concentrations of the agonist DMCHA for the wild-type mTAAR7f

For `CN(C)C1CCCCC1` [N,N-dimethylcyclohexylamine], the EC50 was 8.51 µM.
